Experimental findings from patent publication US11339446B2, “Biomarker for measurement of response and prognosis of triple-negative breast cancer to anticancer agent” (SEOUL NATIONAL UNIVERSITY R&DB FOUNDATION, priority 2017, dated 2022) are described below.

Holding throughout (type): cell-based
The subject of one experiment is HCC38 cell line. The experiment is described as follows: CellTiter-Glo cell viability assay after docetaxel, HCC38. As to the method: (§1) MDA-MB-231, DU4475, MDA-MB-436, and MDA-MB-157 cell lines were purchased from the ATCC. MDA-MB-468, HCC1937, HS578T, and HCC38 cell lines were obtained from the Korea Cell Bank. MDA-MB-157 cell line was cultured in a Leibovitz's L15 culture medium supplemented with 10% fetal bovine serum. The MDA-MB-436 cell line was cultured in a Leibovitz's L15 culture medium supplemented with 10% fetal bovine serum and 0.026 units/ml units insulin. The MDA-MB-231 cell line, the MDA-MB-468 cell line, and the HS578T cell line were each cultured in a DMEM culture medium supplemented with 10% fetal bovine serum in 5% CO2. The remaining cell lines were each cultured in a RPMI-1640 culture medium supplemented with 10% fetal bovine serum in 5% CO2.
(§2) In the present disclosure, docetaxel was used to find genes related to resistance to taxane-based neoadjuvant chemotherapy (NAC). Docetaxel was purchased at Sigma-Aldrich, and then, dissolved according to the instructions of the manufacturer. The cell lines were collected using trypsin treatment, counted with a hemocytometer, and plated for 14 hours at a density of 3,000 cells/well in a 96-well plate. Afterwards, the solvent was replaced with docetaxel at different concentrations (e.g., 0 nM, 0.01 nM, 0.1 nM, 1 nM, 10 nM, and 100 nM), 48 hours after exposure to docetaxel, cell viability experiments were performed using the CellTiter-Glo Luminescent Cell Viability Assay according to the protocol of the manufacture. The CellTiter-Glo Luminescent Cell Viability Assay is a method of determining the number of cells present in a culture medium depending on the amount of ATP in a culture medium. In summary, the same amount of 100 μl of CellTiter-Glo assay reagents were added to each well, incubated for 10 minutes at room temperature, and then, measured according to the luminometry. The experiment was repeated twice, and the 50% inhibitory concentration of each cell line was measured by non-linear regression analysis.

For a further experiment, the system named is MDA-MB-157 cell line. Kind of experiment: CellTiter-Glo cell viability assay after docetaxel, MDA-MB-157. Particulars: MDA-MB-15T. As to the method: as §1, §2
On the technique in general: Cellular ATP, detected with luciferase, serves as a proxy for viable cell number.

The subject of a further experiment is HS578T cell line. Kind of experiment: CellTiter-Glo cell viability assay after docetaxel, HS578T. The protocol:
as §1, §2

In another experiment the test system is MDA-MB-231 cell line. Kind of experiment: CellTiter-Glo cell viability assay after docetaxel, MDA-MB-231. The protocol:
as §1, §2

For a further experiment, the system named is MDA-MB-468 cell line. Kind of experiment: CellTiter-Glo cell viability assay after docetaxel, MDA-MB-468. As to the method:
as §1, §2

The next experiment has as its system MDA-MB-436 cell line. Kind of experiment: CellTiter-Glo cell viability assay after docetaxel, MDA-MB-436. As to the method: as §1, §2
Another experiment deals with DU4475 cell line. The experiment is described as follows: CellTiter-Glo cell viability assay after docetaxel, DU4475. The protocol:
as §1, §2

A further experiment relates to HCC1937 cell line. The experiment is described as follows: CellTiter-Glo cell viability assay after docetaxel, HCC1937. The protocol: as §1, §2

Where only a bound is given, the exact number is not on record here.

As to `CC(=O)O[C@@]12CO[C@@H]1C[C@H](O)[C@@]1(C)C(=O)[C@H](O)C3=C(C)[C@@H](OC(=O)[C@H](O)[C@@H](NC(=O)OC(C)(C)C)c4ccccc4)C[C@@](O)([C@@H](OC(=O)c4ccccc4)[C@H]21)C3(C)C` [Docetaxel, docetaxel], the Survival fraction was determined as 0.57 in the experiment with HCC38 cell line (HCC38, 50 nM); 0.53 in the experiment with HCC38 cell line (HCC38, 100 nM); 0.65 in the experiment on MDA-MB-157 cell line (50 nM); 0.65 in the experiment with MDA-MB-157 cell line (100 nM); 0.32 in the experiment on HS578T cell line (50 nM); 0.29 in the experiment on HS578T cell line (100 nM). Further, the Survival fraction with MDA-MB-231 cell line (MDA-MB-231, 50 nM) is 0.47; with MDA-MB-231 cell line (MDA-MB-231, 100 nM), 0.35; with MDA-MB-468 cell line (MDA-MB-468, 50 nM) it was 0.27; with MDA-MB-468 cell line (MDA-MB-468, 100 nM), 0.26; with MDA-MB-436 cell line (MDA-MB-436, 50 nM) it was 0.81; in the experiment with MDA-MB-436 cell line (MDA-MB-436, 100 nM), 0.75. Moreover, the Survival fraction was found to be 0.37 in the experiment with DU4475 cell line (DU4475, 50 nM); 0.27 in the experiment on DU4475 cell line (DU4475, 100 nM); 0.76 in the experiment with HCC1937 cell line (HCC1937, 50 nM); 0.70 in the experiment on HCC1937 cell line (HCC1937, 100 nM). Also, the IC50 (usually the concentration at which inhibition is half-maximal) is above 100 nM with HCC38 cell line (Homo sapiens, HCC38, 48 hours exposure); above 100 nM in the experiment on MDA-MB-157 cell line (Homo sapiens, MDA-MB-157, 48 hours exposure); 11.1 nM with HS578T cell line (Homo sapiens, Hs-578T, 48 hours exposure); 29.1 nM in the experiment on MDA-MB-231 cell line (Homo sapiens, MDA-MB-231, 48 hours exposure); 1.81 nM in the experiment on MDA-MB-468 cell line (Homo sapiens, MDA-MB-468, 48 hours exposure); above 100 nM in the experiment on MDA-MB-436 cell line (Homo sapiens, MDA-MB-436, 48 hours exposure). For the same compound, the IC50 was 11.6 nM in the experiment with DU4475 cell line (Homo sapiens, DU-4475, DU4475, 48 hours exposure) and above 100 nM in the experiment on HCC1937 cell line (Homo sapiens, HCC1937, 48 hours exposure).
